Source: patent EP3050567B1, “COMPOUND FOR ACTIVATING AMPK AND USES THEREOF” (Energenesis Biomedical Co., Ltd., priority 2013, dated 2015)
pIC50: −log10 of the molar value.

How the values were obtained:
muscle cell C2C12 = assay: Glucose uptake in vitro (fluorescent glucose analog 2-NBDG); assay type: cell-based, Mouse; details: C2C12 cells, 30 min, mean±SEM of three experiments
Protocol: Effects of adenine on glucose uptake were analyzed by measuring the uptake of fluorescent glucose analog (2-NBDG, Molecular Probes) in muscle cell C2C12. C2C12 cells were treated with indicated concentrations of adenine for 30 min at 37°C, and then incubated with 500 µM of fluorescent glucose analog. After 5 min incubation at room temperature, cells were washed three times with Kreb-Hepes buffered solution and fixed in 70% alcohol. The fluorescence of glucose analog in cells was measured using a Fluorescence Microplate Reader System.

[1] = system: TNBS-induced inflammatory bowel disease (IBD) mice model; assay: TNBS induced inflammation in vivo (relapsing colitis); parameters: species or system C57BL/6J mice; details: daily IP adenine 0.01, 0.1, 5 or 30 mg/kg
Protocol: To further evaluate the effects of adenine on inflammatory response, TNBS-induced inflammatory bowel disease (IBD) mice model was used. C57BL/6J mice were maintained at 22° C, under a 12-h light/dark cycle. Relapsing colitis was induced with five escalating doses of TNBS, 0.5 mg, 0.75 mg, 1.0 mg, 1.25 mg, and 1.5 mg, in 50% ethanol were administered respectively for 0.1 mL per mouse weekly. After the third administration of TNBS, daily intraperitoneal injection of adenine (0.01, 0.1, 5 or 30 mg/kg body weight) or saline were given to mice. Two days after the fifth TNBS administration, mice were sacrificed. The inflammatory cytokines including TNF, INFγ and IL-17 from colonic lysates were evaluated by enzyme-linked immunosorbent assays.

AMPK [2] = assay: AMPK activation assay (phospho-AMPK Thr172 western blot) in C2C12 cells; assay type: cell-based, Mouse; details: 30 min
Protocol: (§1) Effects of adenine on AMPK activation were evaluated based on the phosphorylation of AMPK protein upon adenine treatment. Mouse muscle cell C2C12, mouse fibroblast 3T3, human liver carcinoma cell Hep G2, human breast adenocarcinoma cell line MCF7 and human colon adenocarcinoma grade II cell line HT29, human umbilical vein endothelial cell HUVEC, Human acute monocytic leukemiacell THP1, human macrophage cell U937, murine microglia cell BV-2, and mouse neuroblastoma cell Neuro2A and dermal papilla cell were cultured in high-glucose Dulbecco's modified Eagle's medium (DMEM) containing 10% fetal bovine serum (FBS), 4 mM L-glutamine, 2 mM sodium pyruvate and 1% penicillin/streptomycin (Invitrogen GibcoBRL, Carlsbad, Calif., USA) at 37°C, under 5% CO2. Cells were plated at 3 × 10^5 per well in 6-well plates. Twenty-four hours after plating, adenine was added to the culture media as indicated. After 30 min cells were lysed and subject to western blot analysis. Equal amount of protein from each sample was separated by SDS-PAGE and then electroblotted on to PVDF membranes. Membranes were blocked with 3% BSA in PBS for 60 min and incubated with an anti-phospho-AMPK (Thr172) antibody (1:2,000, Cell signaling) or an anti-AMPK antibody (1:2,000, Cell signaling) at 4°C for 16 h followed by the corresponding secondary antibody for 1 h at room temperature (RT). Immunoreactive bands were detected by enhanced chemiluminescence and recorded using Kodak film. The detected signals were scanned and then quantified using TotalLab Quant software (TotalLab).

AMPK [3] = assay: AMPK activation assay (phospho-AMPK Thr172 western blot) in U937 cells; assay type: cell-based, human; details: 30 min
Protocol: as §1

MCF7 = assay: Cancer cell growth inhibition assay, MCF7; assay type: cell-based; details: Homo sapiens; MCF7 cell proliferation, 72 h, cell counting
Protocol: (§2) Human liver hepatocellular carcinoma cell line Hep G2, human breast adenocarcinoma cell line MCF7 and human colon adenocarcinoma grade II cell line HT29 were used to evaluate the effects of adenine on cell proliferation. Those cell lines were obtained from ATCC and were cultured in high-glucose Dulbecco's modified Eagle's medium (DMEM) containing 10% fetal bovine serum (FBS), 4 mM L-glutamine, 2 mM sodium pyruvate and 1% penicillin/streptomycin (Invitrogen GibcoBRL, Carlsbad, Calif., USA) at 37°C under 5% CO2. Cells were plated at 1 × 10^5 per well (6-well plate). Twenty-four hours after plating, cells were treated with indicated concentration of adenine for 72 h and then followed by cell counting. Cells were detached using trypsin-EDTA solution and stained with trypan blue. The living cells were counted using hemocytometer.

HT29 = assay: Cancer cell growth inhibition assay, HT29; assay type: cell-based; details: Homo sapiens, HT-29; HT29 cell proliferation, 72 h, cell counting
Protocol: as §2

TNFα = assay: LPS-induced inflammatory response in THP1 macrophages, secreted TNFα (ELISA); assay type: cell-based, human; details: 50 ng LPS 6 hr
Protocol: Effects of adenine on inflammatory response were evaluated in human THP1 macrophage by examining protein level of intracellular COX-2 and secreted TNFα, IL-1β and IL-6. Differentiation of THP1 monocytes into macrophages was induced by 50 nM PMA for 24 hr. THP1 macrophages were further stimulated by 50 ng LPS for 6 hr in the presence of 10-600 µM of adenine or vehicle followed by cell lysis and western blot analysis. Equal amounts of protein were separated by SDS-PAGE and then electroblotted on to PVDF membranes. Membranes were blocked with 3% BSA in PBS for 60 min and incubated with an anti-COX-2 antibody (1:1,000, Cell signaling), an anti-actin antibody (1:5,000, Cell signaling) at 4° C for 16 h followed by the corresponding secondary antibody for 1 h at room temperature (RT). Immunoreactive bands were detected by enhanced chemiluminescence and recorded using Kodak film. The detected signals were scanned and then quantified using TotalLab Quant software (TotalLab). The secreted TNFα, IL-1β and IL-6 were analyzed by enzyme-linked immunosorbent assays.

[4] = colonic lysates, dose-dependent, vs non-adenine treated mice

Nc1ncnc2nc[nH]c12 [Adenine, adenine]
Glucose uptake (% to control) (muscle cell C2C12; adenine 1 microM): 117±8.1 % to control
Glucose uptake (% to control) (muscle cell C2C12; adenine 10 microM): 261±13.4 % to control
Glucose uptake (% to control) (muscle cell C2C12; adenine 100 microM): 315±11.9 % to control
Glucose uptake (% to control) (muscle cell C2C12; adenine 600 microM): 338±16.5 % to control
body weight loss caused by TNBS [1]: rescued the body weight loss
level of IL-17 in colon [1, 4]: significantly reduced
level of INFγ in colon [1, 4]: significantly reduced
level of TNF in colon [1, 4]: significantly reduced
AMPK activation (fold to control) (AMPK [2]; adenine 1 microM): 1.2 fold to control
AMPK activation (fold to control) (AMPK [2]; adenine 10 microM): 1.7 fold to control
AMPK activation (fold to control) (AMPK [2]; adenine 100 microM): 3.2 fold to control
AMPK activation (fold to control) (AMPK [2]; adenine 200 microM): 3.9 fold to control
AMPK activation (fold to control) (AMPK [2]; adenine 600 microM): 4.1 fold to control
AMPK activation (fold to control) (AMPK [3]; adenine 1 microM): 1.1 fold to control
AMPK activation (fold to control) (AMPK [3]; adenine 10 microM): 1.3 fold to control
AMPK activation (fold to control) (AMPK [3]; adenine 100 microM): 2.9 fold to control
AMPK activation (fold to control) (AMPK [3]; adenine 200 microM): 3.7 fold to control
AMPK activation (fold to control) (AMPK [3]; adenine 600 microM): 4.0 fold to control
pIC50 (MCF7): 3.27
pIC50 (HT29): 3.27
TNFα (% to control) (TNFα; adenine 10 microM): 85±9.1 % to control
TNFα (% to control) (TNFα; adenine 100 microM): 41±2.6 % to control
TNFα (% to control) (TNFα; adenine 600 microM): 23±1.8 % to control
